Assay results taken from ChEMBL document CHEMBL4507268 (2021).

Tests used:
[1] = biological target: Homeodomain-interacting protein kinase 1 (Homo sapiens) (UniProt Q86Z02); conditions: Compound concentration 1.0 uM
[2] = biological target: T1, Ephrin type-B receptor 2 (Homo sapiens) (UniProt P29323); conditions: Compound concentration 1.0 uM
T1 sequence (whole entry): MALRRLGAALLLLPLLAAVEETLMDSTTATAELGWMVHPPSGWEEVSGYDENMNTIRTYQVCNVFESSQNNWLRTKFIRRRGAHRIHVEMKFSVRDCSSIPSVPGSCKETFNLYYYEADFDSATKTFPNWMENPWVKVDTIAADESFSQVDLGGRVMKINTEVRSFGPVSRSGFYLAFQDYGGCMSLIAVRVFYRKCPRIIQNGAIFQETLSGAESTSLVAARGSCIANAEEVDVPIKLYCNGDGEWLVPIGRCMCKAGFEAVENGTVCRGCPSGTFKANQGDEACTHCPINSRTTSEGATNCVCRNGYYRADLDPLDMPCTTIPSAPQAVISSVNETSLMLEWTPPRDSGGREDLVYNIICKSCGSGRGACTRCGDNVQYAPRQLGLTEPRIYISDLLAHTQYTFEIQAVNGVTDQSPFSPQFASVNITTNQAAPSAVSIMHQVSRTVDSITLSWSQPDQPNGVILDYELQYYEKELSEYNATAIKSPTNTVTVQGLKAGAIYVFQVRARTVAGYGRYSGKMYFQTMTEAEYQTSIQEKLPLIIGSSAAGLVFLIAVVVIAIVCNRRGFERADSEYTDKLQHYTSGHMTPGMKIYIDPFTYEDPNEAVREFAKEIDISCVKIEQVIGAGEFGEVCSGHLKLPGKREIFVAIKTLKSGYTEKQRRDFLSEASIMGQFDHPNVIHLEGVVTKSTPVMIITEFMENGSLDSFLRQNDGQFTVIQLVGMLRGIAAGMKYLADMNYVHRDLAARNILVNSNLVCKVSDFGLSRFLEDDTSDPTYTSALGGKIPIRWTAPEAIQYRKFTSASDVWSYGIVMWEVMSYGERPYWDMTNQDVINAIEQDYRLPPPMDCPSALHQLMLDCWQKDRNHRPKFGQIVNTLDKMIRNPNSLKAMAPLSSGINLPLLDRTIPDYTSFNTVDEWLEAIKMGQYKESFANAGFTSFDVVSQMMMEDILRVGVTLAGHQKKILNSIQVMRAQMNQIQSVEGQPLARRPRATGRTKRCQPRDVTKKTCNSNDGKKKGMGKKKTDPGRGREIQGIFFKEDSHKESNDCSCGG

[3] = biological target: Receptor tyrosine-protein kinase erbB-4 (Homo sapiens) (UniProt Q15303); conditions: Compound concentration 1.0 uM
[4] = biological target: Calcium/calmodulin-dependent protein kinase type 1B (Homo sapiens) (UniProt Q6P2M8); conditions: Compound concentration 1.0 uM
Chain of Calcium/calmodulin-dependent protein kinase type 1B (Homo sapiens) (Q6P2M8 whole entry): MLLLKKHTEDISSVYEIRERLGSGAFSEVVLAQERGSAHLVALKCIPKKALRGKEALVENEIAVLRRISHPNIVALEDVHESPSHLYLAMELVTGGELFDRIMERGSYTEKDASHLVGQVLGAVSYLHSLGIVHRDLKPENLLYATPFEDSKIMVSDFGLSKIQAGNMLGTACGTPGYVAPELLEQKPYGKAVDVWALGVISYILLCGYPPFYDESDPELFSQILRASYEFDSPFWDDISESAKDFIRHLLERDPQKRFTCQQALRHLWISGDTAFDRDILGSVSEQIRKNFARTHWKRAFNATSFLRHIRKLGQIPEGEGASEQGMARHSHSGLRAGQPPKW

[5] = biological target: T2, Mitogen-activated protein kinase kinase kinase 7 (Homo sapiens) (UniProt O43318); conditions: Compound concentration 1.0 uM
T2 sequence (whole entry): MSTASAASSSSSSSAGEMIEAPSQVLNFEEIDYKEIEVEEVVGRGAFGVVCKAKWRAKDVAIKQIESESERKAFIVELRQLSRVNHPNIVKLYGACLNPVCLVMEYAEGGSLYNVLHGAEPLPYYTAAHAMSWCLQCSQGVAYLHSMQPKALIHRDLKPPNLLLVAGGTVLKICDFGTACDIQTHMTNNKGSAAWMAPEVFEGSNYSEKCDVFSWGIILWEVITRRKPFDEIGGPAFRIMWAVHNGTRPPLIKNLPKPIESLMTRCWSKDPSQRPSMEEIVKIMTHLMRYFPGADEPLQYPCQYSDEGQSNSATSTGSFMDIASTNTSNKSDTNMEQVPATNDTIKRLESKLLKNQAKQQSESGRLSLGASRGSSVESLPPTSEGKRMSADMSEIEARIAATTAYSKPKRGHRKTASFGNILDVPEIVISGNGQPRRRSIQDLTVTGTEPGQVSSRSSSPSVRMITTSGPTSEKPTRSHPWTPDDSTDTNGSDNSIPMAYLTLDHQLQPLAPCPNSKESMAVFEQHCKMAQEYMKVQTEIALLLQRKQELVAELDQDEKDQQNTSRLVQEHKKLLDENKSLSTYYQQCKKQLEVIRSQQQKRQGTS

[6] = biological target: Alpha-2B adrenergic receptor (Homo sapiens) (UniProt P18089); conditions: Compound concentration 10.0 uM
Chain of Alpha-2B adrenergic receptor (Homo sapiens) (P18089 whole entry): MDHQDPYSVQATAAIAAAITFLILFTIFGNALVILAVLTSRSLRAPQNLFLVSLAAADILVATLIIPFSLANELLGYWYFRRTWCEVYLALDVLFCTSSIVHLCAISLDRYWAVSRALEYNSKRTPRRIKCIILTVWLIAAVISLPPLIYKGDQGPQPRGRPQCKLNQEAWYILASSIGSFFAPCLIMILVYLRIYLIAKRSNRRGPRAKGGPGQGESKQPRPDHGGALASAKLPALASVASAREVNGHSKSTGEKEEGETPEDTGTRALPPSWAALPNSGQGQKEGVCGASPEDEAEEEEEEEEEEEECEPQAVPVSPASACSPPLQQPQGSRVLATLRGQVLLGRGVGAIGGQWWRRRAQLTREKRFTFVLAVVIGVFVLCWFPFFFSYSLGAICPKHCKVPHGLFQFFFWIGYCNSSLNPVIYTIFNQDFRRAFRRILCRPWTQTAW

[7] = biological target: Proto-oncogene tyrosine-protein kinase ROS (Homo sapiens) (UniProt P08922); conditions: Compound concentration 1.0 uM
Chain of Proto-oncogene tyrosine-protein kinase ROS (Homo sapiens) (P08922 whole entry, the tested form may be a part): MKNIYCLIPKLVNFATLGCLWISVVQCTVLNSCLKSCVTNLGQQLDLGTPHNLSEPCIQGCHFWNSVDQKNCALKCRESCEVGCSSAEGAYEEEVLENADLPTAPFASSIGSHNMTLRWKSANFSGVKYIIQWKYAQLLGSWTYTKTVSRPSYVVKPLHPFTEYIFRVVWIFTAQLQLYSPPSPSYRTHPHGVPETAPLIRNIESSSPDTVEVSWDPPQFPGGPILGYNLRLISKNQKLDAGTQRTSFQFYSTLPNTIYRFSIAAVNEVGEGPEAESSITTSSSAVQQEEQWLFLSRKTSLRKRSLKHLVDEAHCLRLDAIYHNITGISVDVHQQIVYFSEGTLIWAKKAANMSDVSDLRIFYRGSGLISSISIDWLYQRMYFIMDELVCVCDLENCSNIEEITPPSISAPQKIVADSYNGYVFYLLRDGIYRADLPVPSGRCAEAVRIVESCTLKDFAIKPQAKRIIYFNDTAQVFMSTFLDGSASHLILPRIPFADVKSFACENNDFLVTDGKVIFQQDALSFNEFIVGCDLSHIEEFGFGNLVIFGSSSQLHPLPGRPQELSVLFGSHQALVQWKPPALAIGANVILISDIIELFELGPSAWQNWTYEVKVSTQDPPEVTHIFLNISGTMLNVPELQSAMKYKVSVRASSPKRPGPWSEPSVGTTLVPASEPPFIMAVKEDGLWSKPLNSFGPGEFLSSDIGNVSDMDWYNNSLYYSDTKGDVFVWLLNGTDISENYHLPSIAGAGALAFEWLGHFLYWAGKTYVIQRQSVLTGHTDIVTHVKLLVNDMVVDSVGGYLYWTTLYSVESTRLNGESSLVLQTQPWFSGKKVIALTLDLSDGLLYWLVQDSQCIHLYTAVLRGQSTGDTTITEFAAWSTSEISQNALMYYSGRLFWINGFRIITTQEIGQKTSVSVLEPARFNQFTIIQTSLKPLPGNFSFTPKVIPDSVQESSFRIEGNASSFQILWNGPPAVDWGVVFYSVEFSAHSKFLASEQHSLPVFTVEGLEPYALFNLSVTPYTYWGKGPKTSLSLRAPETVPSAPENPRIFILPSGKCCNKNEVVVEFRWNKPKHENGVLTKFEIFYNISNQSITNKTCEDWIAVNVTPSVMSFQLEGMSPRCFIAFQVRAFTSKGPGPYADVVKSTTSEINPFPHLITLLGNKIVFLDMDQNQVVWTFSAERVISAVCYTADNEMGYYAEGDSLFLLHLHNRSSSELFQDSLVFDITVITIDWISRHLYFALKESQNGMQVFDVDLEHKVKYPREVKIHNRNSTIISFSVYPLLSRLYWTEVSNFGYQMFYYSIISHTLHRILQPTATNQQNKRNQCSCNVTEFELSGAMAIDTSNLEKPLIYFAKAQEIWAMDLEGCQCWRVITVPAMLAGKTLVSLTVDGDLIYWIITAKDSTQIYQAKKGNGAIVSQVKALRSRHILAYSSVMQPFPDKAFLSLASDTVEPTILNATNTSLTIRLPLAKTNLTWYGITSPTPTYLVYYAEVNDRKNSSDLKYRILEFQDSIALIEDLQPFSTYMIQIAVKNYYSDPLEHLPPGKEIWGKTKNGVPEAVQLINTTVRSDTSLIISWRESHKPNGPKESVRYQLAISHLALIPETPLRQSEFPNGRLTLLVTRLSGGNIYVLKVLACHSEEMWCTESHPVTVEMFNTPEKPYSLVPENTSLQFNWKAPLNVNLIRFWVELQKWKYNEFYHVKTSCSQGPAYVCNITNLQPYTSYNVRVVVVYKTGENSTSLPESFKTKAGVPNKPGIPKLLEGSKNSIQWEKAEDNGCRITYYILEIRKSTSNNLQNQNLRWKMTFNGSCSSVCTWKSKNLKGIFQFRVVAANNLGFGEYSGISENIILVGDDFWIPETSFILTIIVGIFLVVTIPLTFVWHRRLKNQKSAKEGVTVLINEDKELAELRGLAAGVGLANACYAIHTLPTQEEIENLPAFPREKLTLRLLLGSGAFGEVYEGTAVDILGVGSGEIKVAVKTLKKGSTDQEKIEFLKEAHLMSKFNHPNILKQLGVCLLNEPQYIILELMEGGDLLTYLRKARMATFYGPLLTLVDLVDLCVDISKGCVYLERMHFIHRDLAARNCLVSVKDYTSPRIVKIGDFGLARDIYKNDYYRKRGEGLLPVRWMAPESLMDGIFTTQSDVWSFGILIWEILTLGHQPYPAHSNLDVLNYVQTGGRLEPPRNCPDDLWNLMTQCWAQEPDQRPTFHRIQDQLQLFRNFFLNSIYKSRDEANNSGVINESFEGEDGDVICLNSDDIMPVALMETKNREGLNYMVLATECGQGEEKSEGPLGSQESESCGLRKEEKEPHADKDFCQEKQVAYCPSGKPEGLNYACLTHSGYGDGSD

[8] = biological target: T3, Discoidin domain-containing receptor 2 (Homo sapiens) (UniProt Q16832); conditions: Compound concentration 1.0 uM
T3 sequence (whole entry): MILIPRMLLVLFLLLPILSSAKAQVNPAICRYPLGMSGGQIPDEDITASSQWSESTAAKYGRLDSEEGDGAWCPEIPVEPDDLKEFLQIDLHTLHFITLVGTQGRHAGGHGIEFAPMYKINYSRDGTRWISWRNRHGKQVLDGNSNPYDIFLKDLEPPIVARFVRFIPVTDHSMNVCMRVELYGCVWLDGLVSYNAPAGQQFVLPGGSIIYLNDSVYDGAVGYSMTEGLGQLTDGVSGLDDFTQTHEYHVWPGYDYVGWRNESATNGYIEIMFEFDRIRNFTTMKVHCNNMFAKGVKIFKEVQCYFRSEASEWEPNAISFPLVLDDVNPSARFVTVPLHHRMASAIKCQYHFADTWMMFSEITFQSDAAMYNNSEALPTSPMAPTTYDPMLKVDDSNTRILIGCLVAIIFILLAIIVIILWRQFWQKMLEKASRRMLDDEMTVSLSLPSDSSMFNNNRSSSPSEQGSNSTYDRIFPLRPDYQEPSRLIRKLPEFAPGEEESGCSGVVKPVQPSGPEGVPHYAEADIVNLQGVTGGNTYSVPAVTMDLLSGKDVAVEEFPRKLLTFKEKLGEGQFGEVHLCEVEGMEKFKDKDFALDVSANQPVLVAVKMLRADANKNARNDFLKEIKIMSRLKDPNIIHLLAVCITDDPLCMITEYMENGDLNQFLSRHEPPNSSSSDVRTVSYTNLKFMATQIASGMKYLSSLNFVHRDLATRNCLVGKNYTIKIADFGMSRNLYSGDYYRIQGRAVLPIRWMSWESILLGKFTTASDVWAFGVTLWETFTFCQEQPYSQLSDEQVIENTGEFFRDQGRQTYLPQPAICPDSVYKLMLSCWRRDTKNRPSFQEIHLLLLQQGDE

[9] = biological target: MAP/microtubule affinity-regulating kinase 3 (Homo sapiens) (UniProt P27448); conditions: Compound concentration 1.0 uM
Chain of MAP/microtubule affinity-regulating kinase 3 (Homo sapiens) (P27448 whole entry, looked up): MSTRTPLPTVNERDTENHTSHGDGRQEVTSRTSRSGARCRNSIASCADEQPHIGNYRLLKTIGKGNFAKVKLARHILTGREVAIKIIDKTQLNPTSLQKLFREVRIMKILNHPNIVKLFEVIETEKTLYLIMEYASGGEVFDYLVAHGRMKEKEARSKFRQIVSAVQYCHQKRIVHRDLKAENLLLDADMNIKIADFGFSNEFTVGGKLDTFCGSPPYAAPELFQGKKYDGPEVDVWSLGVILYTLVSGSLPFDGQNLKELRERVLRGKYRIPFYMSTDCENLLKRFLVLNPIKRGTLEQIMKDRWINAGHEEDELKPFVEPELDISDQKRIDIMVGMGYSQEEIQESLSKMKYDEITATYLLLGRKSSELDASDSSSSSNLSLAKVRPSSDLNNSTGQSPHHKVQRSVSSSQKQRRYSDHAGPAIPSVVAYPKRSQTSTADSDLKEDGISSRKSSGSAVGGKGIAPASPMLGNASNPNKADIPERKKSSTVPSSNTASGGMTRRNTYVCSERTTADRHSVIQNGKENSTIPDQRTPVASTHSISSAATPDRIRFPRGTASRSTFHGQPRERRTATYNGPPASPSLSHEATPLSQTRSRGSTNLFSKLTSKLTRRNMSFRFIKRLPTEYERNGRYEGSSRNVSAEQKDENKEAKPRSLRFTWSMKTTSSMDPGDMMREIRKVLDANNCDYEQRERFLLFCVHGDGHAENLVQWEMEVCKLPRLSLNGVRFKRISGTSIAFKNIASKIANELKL

Chain of Homeodomain-interacting protein kinase 1 (Homo sapiens) (Q86Z02 whole entry, looked up): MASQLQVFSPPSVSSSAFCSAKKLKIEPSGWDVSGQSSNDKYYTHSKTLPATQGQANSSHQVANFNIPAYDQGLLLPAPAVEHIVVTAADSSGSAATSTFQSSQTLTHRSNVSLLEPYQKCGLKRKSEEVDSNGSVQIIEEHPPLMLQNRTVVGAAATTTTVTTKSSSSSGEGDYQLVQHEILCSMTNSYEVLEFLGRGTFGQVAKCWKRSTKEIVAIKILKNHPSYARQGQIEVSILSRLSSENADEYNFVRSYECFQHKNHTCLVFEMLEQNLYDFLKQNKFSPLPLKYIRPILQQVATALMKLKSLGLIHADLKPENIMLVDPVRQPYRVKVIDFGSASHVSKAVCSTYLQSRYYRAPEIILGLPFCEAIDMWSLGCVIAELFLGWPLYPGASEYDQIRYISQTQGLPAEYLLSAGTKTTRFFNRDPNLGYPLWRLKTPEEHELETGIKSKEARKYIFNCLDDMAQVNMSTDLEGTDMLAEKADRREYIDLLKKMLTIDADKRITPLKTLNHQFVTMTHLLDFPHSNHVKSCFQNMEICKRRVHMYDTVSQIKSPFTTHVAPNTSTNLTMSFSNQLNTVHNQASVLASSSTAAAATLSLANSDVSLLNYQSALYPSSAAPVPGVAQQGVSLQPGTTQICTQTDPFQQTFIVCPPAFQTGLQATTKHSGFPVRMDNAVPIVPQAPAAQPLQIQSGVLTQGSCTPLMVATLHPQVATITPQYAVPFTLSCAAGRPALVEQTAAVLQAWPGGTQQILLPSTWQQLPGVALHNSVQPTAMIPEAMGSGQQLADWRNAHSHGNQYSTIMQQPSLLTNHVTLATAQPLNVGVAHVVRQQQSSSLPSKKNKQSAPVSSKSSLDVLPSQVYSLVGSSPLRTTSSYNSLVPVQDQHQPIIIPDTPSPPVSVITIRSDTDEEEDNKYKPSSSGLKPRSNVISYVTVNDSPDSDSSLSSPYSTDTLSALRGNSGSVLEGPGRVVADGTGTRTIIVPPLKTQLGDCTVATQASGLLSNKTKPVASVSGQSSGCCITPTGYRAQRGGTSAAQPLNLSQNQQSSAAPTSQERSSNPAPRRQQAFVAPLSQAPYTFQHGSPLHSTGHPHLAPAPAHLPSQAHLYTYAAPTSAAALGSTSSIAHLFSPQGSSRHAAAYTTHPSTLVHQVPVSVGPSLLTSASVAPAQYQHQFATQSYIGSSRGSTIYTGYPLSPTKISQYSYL

CN1CCN(c2cnc3c(C4CCN(C(=O)c5ccc(OC(F)(F)F)cc5N)CC4)ncnc3c2)CC1 [BAY-885]
inactive: % residual kinase activity [1] 116% | % residual kinase activity [2] 93% | % residual kinase activity [3] 98% | % residual kinase activity [4] 104% | % residual kinase activity [5] 107% | inhibition [6] -8.47% | % residual kinase activity [7] 111% | % residual kinase activity [8] 104% | % residual kinase activity [9] 100%
